From patent US6342501B1, “Pyrrolo[2,3-d] pyrimidines as antiviral agents” (The Regents of the University of Michigan, priority 1994, dated 2002)
Like-named read-outs stand apart in the source and are kept apart here.

What was measured:
[1] = tested on: human cytomegalovirus (HCMV); experiment: microbe, parasite or virus in culture; type: cell-based, Towne strain; details: for IC50: Human betaherpesvirus 5, HFF, read-out: HCMV; for antiviral activity against HCMV (in words): comment on Table 1 data
Method: (§1) The routine growth and passage of KB and BSC-1 cells was performed in monolayer cultures using minimal essential medium (MEM) with either Hanks salts [MEM(H)] or Earle salts [MEM(E)] supplemented with 10% calf serum. The sodium bicarbonate concentration was varied to meet the buffering capacity required. Cultures of diploid human foreskin fibroblast (HFF) or MRC-5 cells were grown in medium consisting of MEM(E) with 10% fetal bovine serum. Cells were passaged at 1:2 to 1:10 dilutions according to conventional procedures by using 0.05% trypsin plus 0.02% EDTA in a HEPES buffered salt solution (HBS) [Shipman, C., Jr., Proc. Soc. […] HFF and MRC-5 cells were passaged only at 1:2 dilutions. The Towne strain, plaque-purified isolate Po, of HCMV was kindly provided by Dr. Mark Stinski, University of Iowa. The KOS strain of HSV-1 was used in most experiments and was provided by Dr. Sandra K. Weller, University of Conn.
Stock HCMV was prepared by infecting HFF cells at a multiplicity of infection (m.o.i.) of <0.01 plaque-forming units (p.f.u.) per cell. Cell growth medium was changed every four days until cytopathology was evident in all cells (approximately 21 days). Supernatant fluids were retained as the virus stock.
Virus titers were determined using monolayer cultures of HFF cells for HCMV and monolayer cultures of BSC-1 cells for HSV-1 as described earlier [Prichard, M. N., et al., J. Virol. […] Briefly, HFF or BSC-1 cells were planted as described above in 96-well cluster dishes and incubated overnight at 37. degree. C. in a humidified 3% C02 -97% air atmosphere. The next day cultures were inoculated with HCMV or HSV-1 and serially diluted 1:3 across the remaining eleven columns of the 96-well plate. Cultures were incubated at 37. degree. C. for 2 hr to permit virus adsorption and then virus inoculum was replaced with 0.2 ml of fresh medium. Cultures were incubated for seven days for HCMV, two or three days for HSV-1, the medium was removed, and the cell sheets were stained with 0.1% crystal violet in 20% methanol.
HFF cells in 24-well cluster dishes were infected with approximately 100 p.f.u. of HCMV per cm^2 cell sheet using the procedures detailed above. Following virus adsorption, compounds dissolved in growth medium were added to duplicate wells in four to eight selected concentrations. After incubation at 37° C. for 7 to 10 days, cell sheets were fixed, stained with crystal violet and microscopic plaques enumerated as described above.
After virus adsorption, inoculum was replaced with 0.2 mL of fresh medium containing test compounds. The first row of 12 wells was left undisturbed and served as virus controls. Each well in the second row received an additional 0.1 mL of medium with test compound at three times the desired final concentration. The contents of the 12 wells were mixed by repeated pipetting and then serially diluted 1:3 along the remaining wells. In this manner, six compounds could be tested in duplicate on a single plate with concentrations from […]. Plates were incubated at 37° C. for seven days, subjected to one cycle of freezing and thawing; aliquots from each of the eight wells of a given column were transferred to the first column of a fresh 96-well monolayer culture of HFF cells. Contents were mixed and serially diluted 1:3 across the remaining eleven columns of the secondary plate. Each column of the original primary plate was diluted across a separate plate in this manner. Cultures were incubated, plaques were enumerated, and titers calculated as described above.
(§2) Dose-response relationships were constructed by linearly regressing the percent inhibition of parameters derived in the preceding sections against logarithm 10 drug concentrations. […] Samples containing positive controls (acyclovir for HSV-1 and ganciclovir for HCMV) were used in all assays.

[2] = tested on: herpes simplex virus type 1 (HSV-1); experiment: HSV-1 ELISA in BSC-1 cells; type: cell-based, KOS strain; details: read-out: HSV-1
Method: as §1
High titer HSV-1 stocks were prepared by infecting BSC cells at an m.o.i. of <0.1 as detailed previously [Turk, S. R., et al., Antimicrob.
Ninety-six-well cluster dishes were planted with 10,000 BSC-1 cells per well in 200 μL per well of MEM(E) plus 10% calf serum. After overnight incubation at 37° C., selected drug concentrations in quadruplicate and HSV-1 at a concentration of 100 p.f.u./well were added. Following a 3-day incubation at 37° C., medium was removed, plates were blocked, rinsed, and horse radish peroxidase conjugated rabbit anti-HSV-1 antibody was added. Following removal of the antibody containing solution, plates were rinsed, and then developed by adding 150 μL per well of a solution of tetramethylbenzidine as substrate. The reaction was stopped with H2SO4 and absorbance was read at 450 and 570 nm. Drug effects were calculated as a percentage of the reduction in absorbance in the presence of each drug concentration compared to absorbance obtained with virus in the absence of drug.
as §2

[3] = tested on: human foreskin fibroblasts (HFF cells); experiment: Cytotoxicity in stationary HFF cells (microscopic inspection of plaque assay cells); type: cell-based; details: read-out: HFF
Method: (§3) Two different assays were used to explore cytotoxicity of selected compounds: (i) Cytotoxicity produced in stationary HFF cells was determined by microscopic inspection of cells used in plaque assays which were not affected by the virus [Turk, S. R., et al, Antimicrob.
as §2

KB cells = experiment: Cytotoxicity: KB cell growth (crystal violet staining); type: cell-based; details: Homo sapiens, read-out: KBgrv
Method: as §3
Briefly, 96-well cluster dishes were planted with KB cells at 3000-5000 cells per well. After overnight incubation at 37° C., test compound was added in quadruplicate at six to eight concentrations. Plates were incubated at 37° C for 48 hours in a CO2 incubator, rinsed, fixed with 95% ethanol, and stained with 0.1% crystal violet. Acidified ethanol was added and plates read at 570 nm in a spectrophotometer designed to read 96-well ELISA assay plates.
as §2

HSV-1 = details: prior studies; mechanism other than inhibition of DNA synthesis, early in replication cycle; cited from earlier work
HCMV = details: prior studies; mechanism other than inhibition of DNA synthesis, early in replication cycle; cited from earlier work
[4] = Human alphaherpesvirus 1, BSC-1, 72 h
[5] = Human alphaherpesvirus 1, 72 h, Table 1, fifty-percent inhibitory concentration, ELISA, BSC-1 cells, 3-day incubation
[6] = Table 1, cytotoxicity, stationary HFF cells, visual
[7] = Table 1, cytotoxicity, KB cell growth, 48 hours

SMILES | melting point | IC50 [1] [µM] | antiviral activity against HCMV (in words) [1] | IC50 [2, 4] [µM] | IC50 ([3]; HFF) [µM] | IC50 (KB cells; KB, 48 h) [µM] | IC50 [2, 5] [µM] | IC50 [3, 6] [µM] | IC50 (KB cells; [7]) [µM] | inhibition of HSV-1 viral replication (in words) (HSV-1) | inhibition of HCMV viral replication (in words) (HCMV)
N#Cn1c(Br)c(CCc2ccc(Cl)cc2)c2ncnc(N)c21 [Compound 6f, 4-Amino-6-Bromo-5-cyano-7-(4-chlorophenethyl)pyrrolo[2,3]pyrimidine] | 280 °C (dec.) |  |  |  |  |  |  |  |  |  | 
NC(=O)c1cn(Cc2ccc([N+](=O)[O-])cc2)c2ncnc(N)c12 [Compound 1412, 4-amino-7-(4-nitrobenzyl)-pyrrolo[2,3-d]pyrimidine-5-carboxamide] |  | 5 | good to excellent antiviral activity | 45 | 100 | > 100 |  |  |  |  | 
NC(=S)c1cn(CCCc2ccccc2)c2ncnc(N)c12 [Compound 1413, 4-amino-7-(3-phenyl)propyl-pyrrolo[2,3-d]pyrimidine-5-thiocarboxamide] |  | 0.5 | excellent activity |  |  |  | 1.5 | 32 | 38 |  | 
CC(c1ccccc1)n1cc(C#N)c2c(N)ncnc21 (stereo not shown) [Compound 1414, 4-amino-7-((2-phenyl)eth-2-yl)-pyrrolo[2,3-d]pyrimidine-5-carbonitrile] |  | 17 |  |  |  |  | 45 | > 120 | 20 |  | 
NC(=O)c1cn(Cc2ccc(F)cc2)c2ncnc(N)c12 [Compound 1419, 4-amino-7-(4-fluorobenzyl)-pyrrolo[2,3-d]pyrimidine-5-carboxamide] |  | 4.2 | good to excellent antiviral activity | 16 | 100 | 50 |  |  |  |  | 
NC(=O)c1cn(Cc2cccc([N+](=O)[O-])c2)c2ncnc(N)c12 [Compound 1421, 4-amino-7-(3-nitrobenzyl)-pyrrolo[2,3-d]pyrimidine-5-carboxamide] |  | 42 |  | > 100 | > 100 | > 100 |  |  |  |  | 
N#Cc1c(N)n(Cc2cccc([N+](=O)[O-])c2)c2ncnc(N)c12 [Compound 1425, 4,6-diamino-7-(3-nitrobenzyl)-pyrrolo[2,3-d]pyrimidine-5-carbonitrile] |  | 5 | Some activity |  |  |  | > 100 | > 100 | > 100 |  | 
Cc1ccc(Cn2c(Br)c(C(N)=O)c3c(N)ncnc32)cc1 [Compound 1427, 4-amino-6-bromo-7-(4-methylbenzyl)-pyrrolo[2,3-d]pyrimidine-5-carboxamide] |  | > 10 |  | > 100 | > 10 | > 100 |  |  |  |  | 
CC(c1ccccc1)n1cc(C(N)=O)c2c(N)ncnc21 (stereo not shown) [Compound 1428, 4-amino-7-((2-phenyl)-eth-2-yl)-pyrrolo[2,3-d]pyrimidine-5-carboxamide] |  | 38 | good to excellent antiviral activity | 50 | 45 | 20 |  |  |  |  | 
N#Cc1cn(Cc2ccc(F)cc2)c2ncnc(N)c12 [Compound 1429, 4-amino-7-(4-fluorobenzyl)-pyrrolo[2,3-d]pyrimidine-5-carbonitrile] |  | 1.8 | good to excellent antiviral activity |  |  |  | 33 | > 100 | 60 |  | 
Cc1ccc(Cn2c(Br)c(C#N)c3c(=O)[nH]cnc32)cc1 [Compound 1441, 4-oxo-6-bromo-7-(4-methylbenzyl)-pyrrolo[2,3-d]pyrimidine-5-carbonitrile] |  | 21 |  |  |  |  | 90 | 100 | 16 |  | 
NC(=O)c1c(Br)n(Cc2ccc(Cl)cc2)c2ncnc(N)c12 [Compound 1443, 4-amino-6-bromo-7-(4-chlorobenzyl)-pyrrolo[2,3-d]pyrimidine-5-carboxamide] |  | > 10 |  | > 100 | > 10 | > 100 |  |  |  |  | 
N#Cc1cn(Cc2ccc(Cl)cc2)c2ncnc(N)c12 [Compound 1444, 4-amino-7-(4-chlorobenzyl)-pyrrolo[2,3-d]pyrimidine-5-carbonitrile] |  | 0.8 | good to excellent antiviral activity |  |  |  | 85 | > 10 | > 100 |  | 
NC(=S)c1cn(CCc2ccccc2)c2ncnc(N)c12 [Compound 1446, 4-amino-7-(2-phenyl)ethyl-pyrrolo[2,3-d]pyrimidine-5-thiocarboxamide] |  | > 1 | excellent activity |  |  |  | 0.65 | 100 | 10 |  | 
N#Cc1c(N)n(Cc2cccc(N)c2)c2ncnc(N)c12 [Compound 1455, 4,6-diamino-7-(3-aminobenzyl)-pyrrolo[2,3-d]pyrimidine-5-carbonitrile] |  | 6.5 | Some activity |  |  |  | > 100 | > 100 | 40 |  | 
N#Cc1c(Br)n(Cc2cccc(Cl)c2)c2ncnc(N)c12 [Compound 1461, 4-amino-6-bromo-7-(3-chlorobenzyl)-pyrrolo[2,3-d]pyrimidine-5-carbonitrile] |  | > 100 |  |  |  |  | > 100 | > 100 | > 100 |  | 
N#Cc1c(Br)n(Cc2ccc(Cl)c(Cl)c2)c2ncnc(N)c12 [Compound 1462, 4-amino-6-bromo-7-(3,4-dichlorobenzyl)-pyrrolo[2,3-d]pyrimidine-5-carbonitrile] |  | > 100 |  |  |  |  | > 100 | > 100 | > 100 |  | 
COCCOCn1cc(C(N)=S)c2c(N)ncnc21 [compound 5b, 4-amino-7-[(2-methoxyethoxy)methyl]pyrrolo[2,3-d]pyrimidine-5-thiocarboxamide] |  |  |  |  |  |  |  |  |  | inhibited | inhibited
